# Measured values: patent US20240316042A1 (AbbVie Inc., priority 2023, published 2024)
# Read-outs that look alike come from different tables or passages of the source.
# What was measured:
# [1] = tested on: pediatric subjects with severe atopic dermatitis; assay: Phase 1 open-label study in pediatric subjects with severe atopic dermatitis: safety
# Protocol: (§1) This was an open-label, multiple-dose study. AD patients (N=35) were enrolled into four cohorts (Cohort 1, 6 to <12 years with low dose; Cohort 2, 6 to <12 years with high dose; Cohort 3, 2 to <6 years with low dose; Cohort 4, 2 to <6 years with high dose). […] PK was evaluated on Day 7 post first dose. Safety was evaluated throughout the study. Exploratory efficacy parameters were collected at specified timepoints.
# (§2) Part 1 was a multiple-dose, open-label, multiple-cohort study that consisted of two sequential multiple-ascending dose groups (Low Dose and High Dose levels) in the two age groups. (Group 1: 6 to <12 years and Group 2: 2 to <6 years).
# [2] = tested on: pediatric patients with pcJIA; assay: Phase 1 open-label study in pediatric pcJIA patients: efficacy (JIA ACR, JADAS-27, C-HAQ);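 note: values come from an interim analysis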
# Protocol: Based on these parameters, the following composite efficacy endpoints were evaluated: • JIA ACR pediatric 30/50/70/90/100 responses • Change from Baseline in JADAS10/27/71 responses, as well as JADAS-based criteria for low disease activity and remission (if deemed useful and appropriate).
# This was an interim analysis.
# (§3) This interim analysis includes all available pharmacokinetic and safety data and efficacy data collected through Week 48, excluding patients enrolled in the long-term safety cohort.
# [3] = Population pharmacokinetic analyses of upadacitinib exposure in adults / adult RA patients; conditions: for median average plasma exposure over a dosing interval: adult RA patients; for AUC0-24 at steady state, model-estimated: adults
# Protocol: In Part 1, the dose was administered according to three body weight categories.
# The doses selected for this study account for the difference in oral bioavailability between the extended-release tablet formulation and the oral solution. […] Doses were adjusted during the study for any of the body weight categories after review of results from the subjects who completed Part 1.
# [4] = Phase 1 open-label study in pediatric subjects with severe atopic dermatitis: pharmacokinetics on Day 7; assay type: in vivo, human; conditions: for half-life / Cmax: human, plasma, oral; for half-life: read-out: t1/2, harmonic mean (pseudo standard deviation) (converted)
# Protocol: as §1, §2
# There was one additional subject who was enrolled in Cohort 3 but withdrew informed consent before PK assessment. This subject was therefore not included in PK analyses.
# [5] = Solubility of upadacitinib in different aqueous media at 37° C.; assay type: physicochemical; conditions: 50 mM carbonate buffer, pH 9.11
# Description: For pediatric use, an oral solution was developed to improve acceptability (palatability and swallowability), stability, and manufacturability. […] Thus, low pH buffers such as citrate, phosphate, tartrate, and formate are suitable to prepare the oral solution. […] Citrate buffer was selected because it has favorable pKa (˜3.1), which is close to the final pH of the oral solution.
# [6] = Phase 1 open-label study in pediatric pcJIA patients: pharmacokinetics at steady state (Day 7); assay type: in vivo, human; conditions: for AUC / half-life: human, plasma, oral; for AUC / half-life / AUC0-24, geometric mean / CLss/F, geometric mean / CLss/F_adjusted (adjusted for bioavailability), geometric mean: Day 7; for AUC: read-out: AUCtau, geometric mean; for half-life: read-out: Functional t1/2, harmonic mean (converted)
# Protocol: (§4) Part 1 was a multiple-dose, open-label, multiple-cohort study. Two sequential multiple-ascending dose levels (Low Dose and High Dose levels) were evaluated in the 12 to <18 years age group (Group 1), and one dose level (Low Dose) was evaluated in the two younger age groups (Group 2: 6 to <12 years, and Group 3: 2 to <6 years). Low Dose and High Dose cohorts in age group 1 enrolled 9 subjects each.
# (§5) The study enrolled at least 10 subjects below 30 kg. Recruitment of subjects was conducted through a staggered approach based on age. […] Part 3 was an additional safety cohort. […] Part 3 was open to age groups in which Part I enrollment was completed. […] Doses were adjusted during the study for any of the body weight categories after review of results from the subjects who completed Study Part 1.
# In Part 1, the dose was administered according to three body weight categories. Subjects were categorized based on age group, and the dose administered for seven consecutive days will be based on three different body weight categories per dose level shown in Table 2.
# Patients (N=51) diagnosed with pcJIA were enrolled into one of four groups in an open-label, multiple-dose study (Group 1, 12 to <18 years, low dose; Group 2, 12 to <18 years, high dose; Group 3, 6 to <12 years, low dose; Group 4, 2 to <6 years, low dose). […] Pharmacokinetic assessment was performed at steady state on Study Day 7, after which all patients might continue the study with low dose.
# [7] = tested on: pediatric patients with pcJIA; assay: Phase 1 open-label study in pediatric pcJIA patients: safety (adverse events)
# Protocol: as §4, §5
# This was an interim analysis.
# as §3
# [8] = tested on: pediatric subjects with severe atopic dermatitis; assay: Phase 1 open-label study in pediatric subjects with severe atopic dermatitis: efficacy (vIGA-AD, EASI); assay type: in vivo, human; conditions: Week 12 (as observed)
# Protocol: as §1
# During Part 2 of the study, concomitant topical medications for AD were allowed during the study per investigator discretion.
# No formal statistical comparisons were planned.
# [9] = AD Cohort 1: 6 to <12 years, Low Dose, IR Solution, Day 7
# [10] = AD Cohort 2: 6 to <12 years, High Dose, ER Tablet, Day 7
# [11] = AD Cohort 2: 6 to <12 years, High Dose, IR Solution, Day 7
# [12] = AD Cohort 3: 2 to <6 years, Low Dose, IR Solution, Day 7
# [13] = AD Cohort 4: 2 to <6 years, High Dose, IR Solution, Day 7
# [14] = pcJIA Group 3: 6 to <12 years, low dose, BID solution
# [15] = pcJIA Group 4: 2 to <6 years, low dose, BID solution
# [16] = pcJIA Group 1: 12 to <18 years, low dose, QD tablet
# [17] = pcJIA Group 2: 12 to <18 years, high dose, QD tablet
# [18] = pcJIA Group 3: 6 to <12 years, low dose, QD tablet
# [19] = pcJIA Group 3: 6 to <12 years, low dose, tablet and solution combined
# [20] = Enrollment on or after protocol v4.0, N 7
# [21] = Enrollment up to protocol v3.0, N 20
structure (smiles),measurement,setting,value
"CC[C@@H]1CN(C(=O)NCC(F)(F)F)C[C@@H]1c1cnc2cnc3[nH]ccc3n12 [upadacitinib, (3S,4R)-3-ethyl-4-(3H-imidazo[1,2-a]pyrrolo[2,3-e]pyrazin-8-yl)-N-(2,2,2-trifluoroethyl)pyrrolidine-1-carboxamide]",discontinuation of upadacitinib due to adverse event,"[1]; AD Part 2, n=3",9.7%
same,most common AEs,[1]; children with severe AD,"COVID infection, headache, and abdominal discomfort"
same,new safety risks compared to the known safety profile,[1]; children with severe AD,No new safety risks were identified
same,overall safety and tolerability,[1]; children with severe AD,generally safe and well tolerated
same,"C-HAQ, Change from Baseline Mean ([…]% CI)","[2]; Week 12, Overall","−0.45 (−0.63, −0.27)"
same,"C-HAQ, Change from Baseline Median (Min, Max)","[2]; Week 12, Overall","−0.38 (−1.9, 1.1)"
same,"ESR, Change from Baseline Median (Min, Max)","[2]; Week 12, Overall","−4.0 (−41, 26) ^"
same,"Patient/Parent Global Assessment of Overall Well Being (VAS), Change from Baseline Median (Min, Max)","[2]; Week 12, Overall","−26.0 (−81, 37) ^"
same,"Physician's Global Assessment of Disease Activity (VAS), Change from Baseline Median (Min, Max)","[2]; Week 12, Overall","−49.0 (−100, 9) ^"
same,"Total Number of Active Joints, Change from Baseline Median (Min, Max)","[2]; Week 12, Overall","−8.0 (−25, 0) ^"
same,"C-HAQ, Change from Baseline Mean ([…]% CI)","[2]; Week 12, age 2 to <6 years","−0.31 (−0.77, 0.15)"
same,"C-HAQ, Change from Baseline Median (Min, Max)","[2]; Week 12, age 2 to <6 years","−0.38 (−1.3, 1.1)"
same,"ESR, Change from Baseline Median (Min, Max)","[2]; Week 12, age 2 to <6 years","−7.0 (−39, 2) ^"
same,"Patient/Parent Global Assessment of Overall Well Being (VAS), Change from Baseline Median (Min, Max)","[2]; Week 12, age 2 to <6 years","−38.0 (−81, 37) ^"
same,"Physician's Global Assessment of Disease Activity (VAS), Change from Baseline Median (Min, Max)","[2]; Week 12, age 2 to <6 years","−49.0 (−72, −25)"
same,"Total Number of Active Joints, Change from Baseline Median (Min, Max)","[2]; Week 12, age 2 to <6 years","−6.0 (−12, −3)"
same,"C-HAQ, Change from Baseline Mean ([…]% CI)","[2]; Week 12, age 6 to <12 years","−0.64 (−0.95, −0.34)"
same,"C-HAQ, Change from Baseline Median (Min, Max)","[2]; Week 12, age 6 to <12 years","−0.38 (−1.9, 1.1)"
same,"ESR, Change from Baseline Median (Min, Max)","[2]; Week 12, age 6 to <12 years","−4.0 (−41, 7) ^"
same,"Patient/Parent Global Assessment of Overall Well Being (VAS), Change from Baseline Median (Min, Max)","[2]; Week 12, age 6 to <12 years","−29.0 (−61, 9) ^"
same,"Physician's Global Assessment of Disease Activity (VAS), Change from Baseline Median (Min, Max)","[2]; Week 12, age 6 to <12 years","−55.0 (−100, −28)"
same,"Total Number of Active Joints, Change from Baseline Median (Min, Max)","[2]; Week 12, age 6 to <12 years","−8.0 (−24, −4)"
same,"C-HAQ, Change from Baseline Mean ([…]% CI)","[2]; Week 12, age 12 to <18 years","−0.33 (−0.58, −0.09)"
same,"C-HAQ, Change from Baseline Median (Min, Max)","[2]; Week 12, age 12 to <18 years","−0.31 (−1.1, 0.5)"
same,"ESR, Change from Baseline Median (Min, Max)","[2]; Week 12, age 12 to <18 years","−2.5 (−17, 26) ^"
same,"Patient/Parent Global Assessment of Overall Well Being (VAS), Change from Baseline Median (Min, Max)","[2]; Week 12, age 12 to <18 years","−23.0 (−45, 8) ^"
same,"Physician's Global Assessment of Disease Activity (VAS), Change from Baseline Median (Min, Max)","[2]; Week 12, age 12 to <18 years","−41.0 (−94, 9) ^"
same,"Total Number of Active Joints, Change from Baseline Median (Min, Max)","[2]; Week 12, age 12 to <18 years","−9.0 (−25, 0) ^"
same,median average plasma exposure over a dosing interval,[3]; 15 mg QD extended-release formulation,15.1 ng/mL
same,median average plasma exposure over a dosing interval,[3]; 30 mg QD extended-release formulation,30.0 ng/mL
same,"Median AUC0-24 at steady state (5th, 95th percentile)","[3]; adult patients with RA, phase 3 trials, 15 mg ER tablet daily","358 (234, 701) ng·h/mL"
same,"AUC0-24 at steady state, model-estimated",[3]; multiple 15 mg QD doses,362 ng·h/mL
same,"AUC0-24 at steady state, model-estimated",[3]; multiple 30 mg QD doses,720 ng·h/mL
same,"CLss/F, geometric mean (mean, % CV)","[4]; AD Cohort 1: 6 to <12 years, Low Dose, ER Tablet, Day 7","31.5 (34.2, 48) L/h"
same,"CLss/F, geometric mean (mean, % CV)",[4]; [9],"19.3 (20.2, 31) L/h"
same,"CLss/F, geometric mean (mean, % CV)",[4]; [10],"39.1 (42.3, 37) L/h"
same,"CLss/F, geometric mean (mean, % CV)",[4]; [11],"23.0 (23.6, 27) L/h"
same,"CLss/F, geometric mean (mean, % CV)",[4]; [12],"15.6 (18.6, 52) L/h"
same,"CLss/F, geometric mean (mean, % CV)",[4]; [13],"20.7 (23.6, 66) L/h"
same,half-life,[4]; [9],2.35 h
same,half-life,[4]; [10],4.93 h
same,half-life,[4]; [11],1.68 h
same,Cmax,"[4]; AD Cohort 2: 6 to <12 years, high dose, Day 7 (Example 4), read-out: Geometric mean Cmax at steady-state",95.5 ng/mL
same,half-life,[4]; [12],1.67 h
same,Cmax,"[4]; AD Cohort 4: 2 to <6 years, High Dose, IR Solution, Day 7, read-out: Cmax, geometric mean (mean, % CV)",96.9 ng/mL
same,half-life,[4]; [13],2.25 h
same,Cmax,"[4]; AD Cohort 4: 2 to <6 years, high dose, Day 7 (Example 4), read-out: Geometric mean Cmax at steady-state",101 ng/mL
same,solubility,[5],199 ± 6 µg/mL
same,AUC,[6]; [14],198 ng·h/mL
same,half-life,[6]; [14],2.39 h
same,AUC,[6]; [15],184 ng·h/mL
same,half-life,[6]; [15],2.33 h
same,Median AUC0-24,"[6]; pcJIA Group 1 (12 to <18 years), low-dose level",278 ng·h/mL
same,"AUC0-24, geometric mean",[6]; [16],269 ng·h/mL
same,"CLss/F, geometric mean",[6]; [16],55.7 L/h
same,"CLss/F_adjusted (adjusted for bioavailability), geometric mean",[6]; [16],38.1 L/h
same,Median AUC0-24,"[6]; pcJIA Group 2 (12 to <18 years), high-dose level",547 ng·h/mL
same,"AUC0-24, geometric mean",[6]; [17],553 ng·h/mL
same,"CLss/F, geometric mean",[6]; [17],46.5 L/h
same,"CLss/F_adjusted (adjusted for bioavailability), geometric mean",[6]; [17],31.8 L/h
same,"CLss/F_adjusted (adjusted for bioavailability), geometric mean",[6]; [14],19.7 L/h
same,"AUC0-24, geometric mean",[6]; [18],318 ng·h/mL
same,"CLss/F, geometric mean",[6]; [18],41.6 L/h
same,"CLss/F_adjusted (adjusted for bioavailability), geometric mean",[6]; [18],28.5 L/h
same,"AUC0-24, geometric mean",[6]; [19],346 ng·h/mL
same,"CLss/F_adjusted (adjusted for bioavailability), geometric mean",[6]; [19],24.7 L/h
same,Median AUC0-24,"[6]; pcJIA Group 4 (2 to <6 years), low-dose level",360 ng·h/mL
same,"CLss/F_adjusted (adjusted for bioavailability), geometric mean",[6]; [15],15.0 L/h
same,apparent oral clearance in relation to bodyweight,[6]; pcJIA patients,increased in pcJIA patients with increasing bodyweight
same,patients reporting serious AEs or AEs leading to treatment discontinuation,"[7]; pcJIA part 1, through 7 days",no patients
same,patients reporting adverse events (AEs),"[7]; pcJIA part 1, through 7 days, 8 out of 51 patients",15.7%
same,patients reporting AEs,"[7]; pcJIA part 2 and part 3, 52 out of 57 patients",91.2%
same,AE of special interest: neutropenia,"[7]; pcJIA part 2 and part 3, n=2/57",3.5%
same,AE of special interest: hepatic disorder,"[7]; pcJIA part 2 and part 3, n=3/57",5.3%
same,AE of special interest: elevated creatine phosphokinase,"[7]; pcJIA part 2 and part 3, n=6/57",10.5%
same,patients reporting AEs leading to treatment discontinuation,"[7]; pcJIA, 12 to <18 years of age group, 2 of 19",10.5%
same,patients reporting serious AEs,"[7]; pcJIA, 12 to <18 years of age group, six out of 19",31.6%
same,uveitis events,"[7]; pcJIA, during the study",no uveitis events occurred
same,deaths,"[7]; pcJIA, interim analysis",No deaths occurred
same,overall safety and tolerability,[7]; pediatric patients with pcJIA,safe and well tolerated
same,"EASI 75, Responder","[8]; Age 2 to <6 years, N 12",9 (75.0) n (%)
same,"vIGA-AD of 0 or 1 with at least two grades of reduction from baseline, Responder","[8]; Age 2 to <6 years, N 12",3 (25.0) n (%)
same,"EASI 75, Responder","[8]; Age 6 to <12 years, N 15",10 (66.7) n (%)
same,"vIGA-AD of 0 or 1 with at least two grades of reduction from baseline, Responder","[8]; Age 6 to <12 years, N 15",6 (40.0) n (%)
same,"EASI 75, Responder",[8]; [20],7 (100) n (%)
same,"vIGA-AD of 0 or 1 with at least two grades of reduction from baseline, Responder",[8]; [20],3 (42.9) n (%)
same,"EASI 75, Responder",[8]; [21],12 (60.0) n (%)
same,"vIGA-AD of 0 or 1 with at least two grades of reduction from baseline, Responder",[8]; [21],6 (30.0) n (%)
same,"EASI 75, Responder","[8]; Overall, N 27",19 (70.4) n (%)
same,"vIGA-AD of 0 or 1 with at least two grades of reduction from baseline, Responder","[8]; Overall, N 27",9 (33.3) n (%)
